This note sets out measurements from ChEMBL document CHEMBL4842331, “Targeted Discovery of the Polyene Macrolide Hexacosalactone A from Streptomyces by Reporter-Guided Selection of Fermentation Media” (J Nat Prod, 2021).

In brackets after ≈: the same amount, converted by molar mass. Activity calls are given as the source filed them. The calls are words filed in the database; no cut-off is given here.

For assay [1], the system named is Phytophthora capsici. The assay can be described thus: Antifungal activity against Phytophthora capsici assessed as inhibition of fungal growth at 20 ug/disk by paper disk diffusion method. The settings on record: dose 20.0 µg. It counts as functional, organism-based. In general terms: In agar diffusion tests the substance spreads into inoculated agar from a disc or well.

The subject of assay [2] is Staphylococcus aureus. The assay can be described thus: Antibacterial activity against Staphylococcus aureus ATCC 25923 assessed as inhibition of bacterial growth by paper disk diffusion method. It counts as functional.
Assay [3] has as its system NCI-H1299. In words: Cytotoxicity against human NCI-H1299 cells assessed as reduction in cell viability by MTT assay. It counts as functional, cell-based. Background: Tetrazolium assays rely on reduction of a dye to a coloured formazan, in cell work by metabolically active cells.
For assay [4], the system named is Pseudomonas aeruginosa. The assay can be described thus: Antibacterial activity against Pseudomonas aeruginosa PAO1 assessed as inhibition of bacterial growth at 20 ug/disk by paper disk diffusion method. It counts as functional, organism-based. The settings on record: dose 20.0 µg.
The subject of assay [5] is Alternaria alternata. In words: Antifungal activity against Alternaria alternata assessed as inhibition of fungal growth at 20 ug/disk by paper disk diffusion method. It counts as functional, organism-based. The settings on record: dose 20.0 µg.
The subject of assay [6] is K562. In words: Cytotoxicity against human K562 cells assessed as reduction in cell viability by MTT assay. It counts as functional, cell-based.
In assay [7] the test system is Valsa ambiens. In words: Antifungal activity against Valsa ambiens assessed as inhibition of fungal growth at 20 ug/disk by paper disk diffusion method. It counts as functional, organism-based. The settings on record: Cytospora leucosperma; dose 20.0 µg.
Assay [8] concerns Proteus vulgaris. In words: Antibacterial activity against Proteus vulgaris CPCC 160013 assessed as inhibition of bacterial growth by paper disk diffusion method. It counts as functional.
The subject of assay [9] is Salmonella typhimurium. The assay can be described thus: Antibacterial activity against Salmonella enterica serovar typhimurium UK-1X8956 assessed as inhibition of bacterial growth at 20 ug/disk by paper disk diffusion method. It counts as functional, organism-based. Particulars: Salmonella enterica subsp. enterica serovar Typhimurium, dose 20.0 µg.
Assay [10] deals with Mycolicibacterium smegmatis. The assay can be described thus: Antibacterial activity against Mycobacterium smegmatis mc2 155 assessed as inhibition of bacterial growth at 20 ug/disk by paper disk diffusion method. The settings on record: dose 20.0 µg. It counts as functional, organism-based.
Assay [11] deals with Rhizoctonia solani. The assay can be described thus: Antifungal activity against Rhizoctonia solani assessed as inhibition of fungal growth at 20 ug/disk by paper disk diffusion method. It counts as functional, organism-based. Particulars: dose 20.0 µg.
Assay [12] has as its system MDA-MB-231. The assay can be described thus: Cytotoxicity against human MDA-MB-231 cells assessed as reduction in cell viability by MTT assay. It counts as functional, cell-based.
Assay [13] deals with Escherichia coli. The assay can be described thus: Antibacterial activity against Escherichia coli DH5alpha assessed as inhibition of bacterial growth at 20 ug/disk by paper disk diffusion method. It counts as functional, organism-based. Particulars: DH5[alpha], dose 20.0 µg.
Assay [14] concerns Botryosphaeria dothidea. In words: Antifungal activity against Botryosphaeria dothidea assessed as inhibition of fungal growth at 20 ug/disk by paper disk diffusion method. It counts as functional, organism-based. The settings on record: dose 20.0 µg.

As to `CO[C@@H]1C[C@H](O)[C@@H](C)[C@H](O)[C@@H](C)C[C@@H](C)C(=O)C(C)[C@H](C(C)C)OC(=O)/C(C)=C/C=C/C(C)=C/C=C/C(C)=C\C[C@H](OC(=O)/C=C/C(=O)NC2=C(O)CCC2=O)[C@@H]1C` (some centres undefined), the outcome in assay [1], in [4], in [5], in assay [7], in [9] and in assay [10] was inactive. Also, the result in assay [11], in assay [13] and in [14] was inactive. For the same compound, the MIC in assay [2] and in assay [8] was 12.5 µg/mL (≈ 15.4 µM) each time. For the same compound, the IC50 in [3], in assay [6] and in assay [12] was over 20 µM each time.
